Source: ChEMBL document CHEMBL1201862, “PubChem BioAssay data set” (2004)
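Growth conditions: 96-well plates. Treatment: test compound, 48 hours, 5 concentrations. Analysis: linear interpolation between bracketing concentrations; unreached endpoints set to highest concentration. GI50 marks 50% less growth.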 The source made the active and inactive calls. No stated cut-off is given here; in the data, active = GI50 up to about 1.1 µM and inactive = higher.

Key:
Assay in all cases: inhibition of tumour cell growth, NCI panel, 48 h
HT-29 = system: HT-29
NCI-H23 = system: NCI-H23
T47D = system: T47D
Malme-3M = system: Malme-3M
OVCAR-8 = system: OVCAR-8
ACHN = system: ACHN
CCRF-CEM = system: CCRF-CEM
A549 = system: A549
SK-MEL-5 = system: SK-MEL-5
OVCAR-4 = system: OVCAR-4
SR = system: SR
UACC-62 = system: UACC-62
NCI-H522 = system: NCI-H522
CAKI-1 = system: CAKI-1
RPMI-8226 = system: RPMI-8226
IGROV-1 = system: IGROV-1
BT-549 = system: BT-549
KM12 = system: KM12
SN12C = system: SN12C
SF-268 = system: SF-268

| SMILES | GI50 (HT-29) | GI50 (NCI-H23) | GI50 (T47D) | GI50 (Malme-3M) | GI50 (OVCAR-8) | GI50 (ACHN) | GI50 (CCRF-CEM) | GI50 (A549) | GI50 (SK-MEL-5) | GI50 (OVCAR-4) | GI50 (SR) | GI50 (UACC-62) | GI50 (NCI-H522) | GI50 (CAKI-1) | GI50 (RPMI-8226) | GI50 (IGROV-1) | GI50 (BT-549) | GI50 (KM12) | GI50 (SN12C) | GI50 (SF-268) |
| --- | --- | --- | --- | --- | --- | --- | --- | --- | --- | --- | --- | --- | --- | --- | --- | --- | --- | --- | --- | --- |
| CC(C)[Si](OC1=C(C(=O)Nc2ccccc2Cl)CCCCC1)(C(C)C)C(C)C | > 100 µM (inactive) | > 100 µM (inactive) | > 100 µM (inactive) | > 100 µM (inactive) | > 100 µM (inactive) | > 100 µM (inactive) | 0.462 µM (active) | > 100 µM (inactive) | > 100 µM (inactive) | > 100 µM (inactive) | > 100 µM (inactive) | > 100 µM (inactive) | > 100 µM (inactive) | > 100 µM (inactive) | > 100 µM (inactive) | > 100 µM (inactive) | > 100 µM (inactive) | > 100 µM (inactive) | > 100 µM (inactive) | > 100 µM (inactive) |
| CCN(CC)CCC(=O)c1ccc(Sc2ccc(F)cc2)cc1 | 21.8 µM (inactive) | 17.7 µM (inactive) | 21.2 µM (inactive) | 16 µM (inactive) | 19.4 µM (inactive) | 18.3 µM (inactive) | 7.28 µM (inactive) | > 100 µM (inactive) | 17.1 µM (inactive) | 20.1 µM (inactive) | 12.9 µM (inactive) | 16.2 µM (inactive) | 16.1 µM (inactive) | 16 µM (inactive) | 2.44 µM (inactive) | 18.2 µM (inactive) | 17.2 µM (inactive) | 15.7 µM (inactive) | 21.7 µM (inactive) | 15.8 µM (inactive) |
| O=C(CSc1ncccn1)N/N=C/c1ccccc1OCc1ccccc1 | 34.1 µM (inactive) | 32.3 µM (inactive) | 24.8 µM (inactive) | 32.4 µM (inactive) | 28.7 µM (inactive) | 35.2 µM (inactive) | 15.3 µM (inactive) | 71.8 µM (inactive) | 14.8 µM (inactive) | 22.8 µM (inactive) | 4.23 µM (inactive) | 20.9 µM (inactive) | 28.4 µM (inactive) | 26.4 µM (inactive) | 19.5 µM (inactive) | 28.4 µM (inactive) | 25 µM (inactive) | 28.4 µM (inactive) | 27.2 µM (inactive) | 43 µM (inactive) |
| O=[N+]([O-])c1ccc(-[n+]2ccc3ccccc3c2)c([N+](=O)[O-])c1 | 2.33 µM (inactive) | 2.43 µM (inactive) | 2.01 µM (inactive) | 3.94 µM (inactive) | 2.47 µM (inactive) | 2.02 µM (inactive) | 1.54 µM (inactive) | 16.4 µM (inactive) | 2.64 µM (inactive) | 1.56 µM (inactive) | 3.42 µM (inactive) | 2.28 µM (inactive) | 2.1 µM (inactive) | 4.14 µM (inactive) | 2.32 µM (inactive) | 3.1 µM (inactive) | 4.83 µM (inactive) | 12.3 µM (inactive) | 2.69 µM (inactive) | 3.12 µM (inactive) |
| COc1ccc(CC(C)NCC(O)c2ccc(O)c(NC=O)c2)cc1 (stereo not given) | 86.7 µM (inactive) | > 100 µM (inactive) | > 100 µM (inactive) | > 100 µM (inactive) | > 100 µM (inactive) | > 100 µM (inactive) | > 100 µM (inactive) | > 100 µM (inactive) | > 100 µM (inactive) | > 100 µM (inactive) | > 100 µM (inactive) | > 100 µM (inactive) | > 100 µM (inactive) | 42.2 µM (inactive) | > 100 µM (inactive) | > 100 µM (inactive) | > 100 µM (inactive) | > 100 µM (inactive) | 20.1 µM (inactive) | > 100 µM (inactive) |
| CC1(C)O[C@@H]2C[C@H]3[C@@H]4C[C@H](F)C5=CC(=O)C=C[C@]5(C)[C@@]4(F)[C@@H](O)C[C@]3(C)[C@]2(C(=O)CO)O1 [FLUOCINOLONE ACETONIDE] | > 100 µM (inactive) | > 100 µM (inactive) | > 100 µM (inactive) | > 100 µM (inactive) | > 100 µM (inactive) | > 100 µM (inactive) | < 0.01 µM (active) | > 100 µM (inactive) | > 100 µM (inactive) | > 89.1 µM (inactive) | > 100 µM (inactive) | > 100 µM (inactive) | > 100 µM (inactive) | > 100 µM (inactive) | < 0.01 µM (active) | > 100 µM (inactive) | > 100 µM (inactive) | > 100 µM (inactive) | 12 µM (inactive) | > 100 µM (inactive) |
| CCOC(=O)CC1Nc2ccccc2C12CCc1c([nH]c3ccccc13)C2C(=O)OCC (stereo not given) | 11.6 µM (inactive) | 51.2 µM (inactive) | 10.4 µM (inactive) | 10.5 µM (inactive) | > 100 µM (inactive) | 28.6 µM (inactive) | 0.359 µM (active) | 14.3 µM (inactive) | 14.8 µM (inactive) | 12.3 µM (inactive) | 17.3 µM (inactive) | 9.62 µM (inactive) | 7.13 µM (inactive) | 6.58 µM (inactive) | 2.77 µM (inactive) | 6.92 µM (inactive) | > 100 µM (inactive) | 14.8 µM (inactive) | 24.7 µM (inactive) | 51.4 µM (inactive) |
| CC(=O)N1N=C(c2c(O)ccc3ccccc23)CC1C(=O)c1ccco1 (stereo not given) | 33.8 µM (inactive) | 22.2 µM (inactive) | 39.8 µM (inactive) | 30.5 µM (inactive) | 39 µM (inactive) | 33 µM (inactive) | 14.9 µM (inactive) | 28.2 µM (inactive) | 22.8 µM (inactive) | 36 µM (inactive) | 13.6 µM (inactive) | 16.4 µM (inactive) | 28.2 µM (inactive) | 42.6 µM (inactive) | 14 µM (inactive) | 27.1 µM (inactive) | 18.4 µM (inactive) | 28.1 µM (inactive) | 32.4 µM (inactive) | 31.1 µM (inactive) |
| CCOn1c(C2(CC3CCN(C(=O)c4ccccc4)CC3)OCCO2)cc2ccccc21 | 18.9 µM (inactive) | 19.5 µM (inactive) | 18.9 µM (inactive) | 18.2 µM (inactive) | 14.3 µM (inactive) | 14.6 µM (inactive) | 12.6 µM (inactive) | 16.9 µM (inactive) | 11.9 µM (inactive) | 15.2 µM (inactive) | 6.27 µM (inactive) | 11 µM (inactive) | 19.3 µM (inactive) | 15.4 µM (inactive) | 8.51 µM (inactive) | 15 µM (inactive) | 19.4 µM (inactive) | 15.8 µM (inactive) | 17.2 µM (inactive) | 19.3 µM (inactive) |
| COC1/C=C\C=C(/C)C(=O)NC2=CC(=O)C(O)=C(CC(C)CC(OC)C(O)C(C)/C=C(\C)C1OC(N)=O)C2=O (stereo not given) | 0.0269 µM (active) | 0.482 µM (active) | 7.05 µM (inactive) | 0.0668 µM (active) | 0.351 µM (active) | 2.81 µM (inactive) | 0.0282 µM (active) | 4.79 µM (inactive) | 0.859 µM (active) | 10.3 µM (inactive) | 0.0406 µM (active) | 0.382 µM (active) | 0.0596 µM (active) | 2.55 µM (inactive) | 0.0789 µM (active) | 0.757 µM (active) | 40.5 µM (inactive) | 0.649 µM (active) | 0.0446 µM (active) | 5.7 µM (inactive) |
| CCOC(=O)c1nc2ccccc2nc1Oc1cc(OC)c(OC)c(OC)c1 | > 100 µM (inactive) | 87.3 µM (inactive) | > 100 µM (inactive) | > 100 µM (inactive) | > 100 µM (inactive) | 46.9 µM (inactive) | > 100 µM (inactive) | > 100 µM (inactive) | > 100 µM (inactive) | > 100 µM (inactive) | > 100 µM (inactive) | > 100 µM (inactive) | 83.4 µM (inactive) | 84.5 µM (inactive) | > 100 µM (inactive) | > 100 µM (inactive) | > 100 µM (inactive) | > 100 µM (inactive) | > 100 µM (inactive) | > 100 µM (inactive) |
| O=C(Nc1nncs1)NS(=O)(=O)n1c(=S)sc2ccccc21 | > 100 µM (inactive) | > 100 µM (inactive) | 88.9 µM (inactive) | > 100 µM (inactive) | > 100 µM (inactive) | > 100 µM (inactive) | 24.9 µM (inactive) | > 100 µM (inactive) | > 100 µM (inactive) | > 100 µM (inactive) | 36.4 µM (inactive) | > 100 µM (inactive) | 48.1 µM (inactive) | > 100 µM (inactive) | > 100 µM (inactive) | > 100 µM (inactive) | > 100 µM (inactive) | > 100 µM (inactive) | > 100 µM (inactive) | > 100 µM (inactive) |
| COc1ccc(N/N=C2\C3=C(CCC(C)(C)O3)C(=O)c3ccccc32)cc1 | 13.6 µM (inactive) | 18 µM (inactive) | 2.51 µM (inactive) | 20.9 µM (inactive) | 26.5 µM (inactive) | 13.7 µM (inactive) | 16 µM (inactive) | 16.6 µM (inactive) | 12.2 µM (inactive) | 18.3 µM (inactive) | 12.6 µM (inactive) | 14.5 µM (inactive) | 17 µM (inactive) | 20 µM (inactive) | 16.8 µM (inactive) | 15.2 µM (inactive) | 19.1 µM (inactive) | 13.4 µM (inactive) | 17.9 µM (inactive) | 15.3 µM (inactive) |
